From ChEMBL document CHEMBL3244027, “Syntheses, analgetic activity, and physical dependence capacity of 5-phenyl-6,7-benzomorphan derivatives” (J Med Chem, 1979)
Calls of active or inactive are those of the source. No cut-off for these calls is given here.

Legend:
Mus musculus [1] = assay: Analgetic activity against CF-1 mouse assessed as increase in reaction time at 2.5 mg/kg, sc by heat stimulus induced tail flick response assay; format: functional, organism-based; parameters: dose 2.5 mg/kg
Mus musculus [2] = assay: Analgetic activity against CF-1 mouse assessed as increase in reaction time at 20 mg/kg, po by heat stimulus induced tail flick response assay; format: functional, organism-based; parameters: dose 20 mg/kg
Mus musculus [3] = assay: Analgetic activity against CF-1 mouse assessed as increase in reaction time at 5 mg/kg, sc by heat stimulus induced tail flick response assay; format: functional, organism-based; parameters: dose 5 mg/kg
Mus musculus [4] = assay: Analgetic activity against CF-1 mouse assessed as increase in reaction time at 60 mg/kg, sc by heat stimulus induced tail flick response assay; format: functional, organism-based; parameters: dose 60 mg/kg
Mus musculus [5] = assay: Analgetic activity in sc dosed CF1S mouse assessed as writhing by phenylquinone writhing test; format: functional; conditions: Mus musculus, CF1S, sc; read-out: ED50
Mus musculus [6] = assay: Analgetic activity against CF-1 mouse assessed as increase in reaction time at 100 mg/kg, po by heat stimulus induced tail flick response assay; format: functional, organism-based; parameters: dose 100 mg/kg
Mus musculus [7] = assay: Analgetic activity against CF-1 mouse assessed as increase in reaction time at 30 mg/kg, po by heat stimulus induced tail flick response assay; format: functional, organism-based; parameters: dose 30 mg/kg
Mus musculus [8] = assay: Analgetic activity against CF-1 mouse assessed as increase in reaction time at 10 mg/kg, po by heat stimulus induced tail flick response assay; format: functional, organism-based; parameters: dose 10 mg/kg
Mus musculus [9] = assay: Analgetic activity against CF-1 mouse assessed as increase in reaction time at 1.5 mg/kg, sc by heat stimulus induced tail flick response assay; format: functional, organism-based; parameters: dose 1.5 mg/kg
Mus musculus [10] = assay: Analgetic activity against CF-1 mouse assessed as increase in reaction time at 10 mg/kg, sc by heat stimulus induced tail flick response assay; format: functional, organism-based; parameters: dose 10 mg/kg
Mus musculus [11] = assay: Analgetic activity against CF-1 mouse assessed as increase in reaction time at 320 mg/kg, po by heat stimulus induced tail flick response assay; format: functional, organism-based; parameters: dose 320 mg/kg
Mus musculus [12] = assay: Analgetic activity against CF-1 mouse assessed as increase in reaction time at 30 mg/kg, sc by heat stimulus induced tail flick response assay; format: functional, organism-based; parameters: dose 30 mg/kg
Mus musculus [13] = assay: Analgetic activity against CF-1 mouse assessed as increase in reaction time at 80 mg/kg, po by heat stimulus induced tail flick response assay; format: functional, organism-based; parameters: dose 80 mg/kg
Mus musculus [14] = organism: Mus musculus; assay: Analgetic activity in naloxone challenged mouse assessed as frequency pretreated for 2 day by mouse jumping test; format: functional, organism-based
Mus musculus [15] = assay: Analgetic activity against CF-1 mouse assessed as increase in reaction time at 100 mg/kg, sc by heat stimulus induced tail flick response assay; format: functional, organism-based; parameters: dose 100 mg/kg
Mus musculus [16] = assay: Analgetic activity against CF-1 mouse assessed as increase in reaction time at 4 mg/kg, sc by heat stimulus induced tail flick response assay; format: functional, organism-based; parameters: dose 4 mg/kg
Mus musculus [17] = organism: Mus musculus; assay: Analgetic activity in nalorphine challenged mouse assessed as frequency pretreated for 2 day by mouse jumping test; format: functional, organism-based
Mus musculus [18] = assay: Analgetic activity against CF-1 mouse assessed as increase in reaction time at 20 mg/kg, sc by heat stimulus induced tail flick response assay; format: functional, organism-based; parameters: dose 20 mg/kg
Mus musculus [19] = assay: Analgetic activity against CF-1 mouse assessed as increase in reaction time at 160 mg/kg, sc by heat stimulus induced tail flick response assay; format: functional, organism-based; parameters: dose 160 mg/kg
Mus musculus [20] = assay: Analgetic activity against CF-1 mouse assessed as increase in reaction time at 40 mg/kg, sc by heat stimulus induced tail flick response assay; format: functional, organism-based; parameters: dose 40 mg/kg
Mus musculus [21] = assay: Analgetic activity against CF-1 mouse assessed as increase in reaction time at 80 mg/kg, sc by heat stimulus induced tail flick response assay; format: functional, organism-based; parameters: dose 80 mg/kg
Mus musculus [22] = assay: Analgetic activity in po dosed CF1S mouse assessed as writhing by phenylquinone writhing test; format: functional; conditions: Mus musculus, CF1S, po; read-out: ED50
Mus musculus [23] = assay: Analgetic activity against CF-1 mouse assessed as increase in reaction time at 50 mg/kg, sc by heat stimulus induced tail flick response assay; format: functional, organism-based; parameters: dose 50 mg/kg
Mus musculus [24] = assay: Analgetic activity against CF-1 mouse assessed as increase in reaction time at 1.2 mg/kg, sc by heat stimulus induced tail flick response assay; format: functional, organism-based; parameters: dose 1.2 mg/kg

`CCC(=O)Oc1ccc2c(c1)C1(c3ccccc3)CCN(C)C(C2)C1C` (centres undefined) was tested, and the Activity (Mus musculus [1]) was “Active”.
In the case of `COCOc1ccc2c(c1)C1(c3ccccc3)CCN(C)C(C2)C1C` (centres undefined), the Activity (Mus musculus [2]) is reported as “Active” and the Activity (Mus musculus [3]) is reported as “Active”.
In the case of `CN1CCC2(c3ccccc3)CC1Cc1ccc(O)cc12` (stereo in doubt; 43), the Activity (Mus musculus [4]) is reported as “inactive”.
With `CC(=O)N1CCC2(c3ccccc3)CC1Cc1ccc(O)cc12` (racemic) the ED50 (Mus musculus [5]) was over 100 mg/kg and the Activity (Mus musculus [6]) was “inactive”.
In the case of `CC(=O)Oc1ccc2c(c1)C1(c3ccccc3)CCN(C(C)=O)C(C2)C1` (racemic), the Activity (Mus musculus [7]) is reported as “inactive” and the ED50 (Mus musculus [5]) is reported as over 100 mg/kg.
`CCCCC(=O)Oc1ccc2c(c1)C1(c3ccccc3)CCN(C)C(C2)C1C` (centres undefined) was tested, and the Activity (Mus musculus [8]) was “Active” and the Activity (Mus musculus [9]) was “Active”.
For `CC1C2Cc3ccc(O)cc3C1(c1ccc(Cl)cc1)CCN2C` (racemic), the Activity (Mus musculus [2]) was “Active” and the Activity (Mus musculus [10]) was “Active”.
`COc1ccc2c(c1)C1(c3ccccc3)CCN(C)C(C2)C1` (centres undefined) was tested, and the Activity (Mus musculus [11]) was “inactive” and the Activity (Mus musculus [12]) was “inactive”.
In the case of `CCN1CCC2(c3ccccc3)CC1Cc1ccc(O)cc12` (racemic), the ED50 (Mus musculus [5]) is reported as over 30 mg/kg and the Activity (Mus musculus [12]) is reported as “inactive”.
In the case of `Oc1ccc2c(c1)C1(c3ccccc3)CCN(CCc3ccccc3)C(C2)C1` (centres undefined), the Activity (Mus musculus [13]) is reported as “Active” and the Activity (Mus musculus [14]) is reported as “Active”.
With `CCCCCN1CCC2(c3ccccc3)c3cc(O)ccc3CC1C2C` (racemic) the Activity (Mus musculus [3]) was “Active”.
With `CC(=O)Oc1ccc2c(c1)C1(c3ccc(Cl)cc3)CCN(C)C(C2)C1` (racemic) the ED50 (Mus musculus [5]) was 20 mg/kg and the Activity (Mus musculus [15]) was “Active”.
`CC(=O)Oc1ccc2c(c1)C1(c3ccccc3)CCN(C)C(C2)C1C` (centres undefined) was tested, and the Activity (Mus musculus [8]) was “Active” and the Activity (Mus musculus [16]) was “Active”.
For `CN1CCC2(c3ccccc3)CC1Cc1ccccc12` (stereo in doubt; 36), the Activity (Mus musculus [17]) was “inactive” and the Activity (Mus musculus [18]) was “Active”.
With `CCCCCN1CCC2(c3ccccc3)c3cc(O)ccc3CC1C2C` (centres undefined) the Activity (Mus musculus [1]) was “Active” and the Activity (Mus musculus [19]) was “Active”.
For `CCCC(=O)Oc1ccc2c(c1)C1(c3ccccc3)CCN(C)C(C2)C1C` (centres undefined), the Activity (Mus musculus [8]) was “Active” and the Activity (Mus musculus [2]) was “Active”.
`CC1C2Cc3ccc(OC(=O)CCl)cc3C1(c1ccccc1)CCN2C` (centres undefined) was tested, and the Activity (Mus musculus [1]) was “Active”.
`COc1ccc2c(c1)C1(c3ccccc3)CCN(C)C(C2)C1C` (centres undefined) was tested, and the Activity (Mus musculus [20]) was “Active”, the Activity (Mus musculus [2]) was “Active” and the Activity (Mus musculus [21]) was “Active”.
In the case of `CC1C2Cc3ccc(OC(=O)c4ccccc4Cl)cc3C1(c1ccccc1)CCN2C` (centres undefined), the Activity (Mus musculus [17]) is reported as “Active” and the ED50 (Mus musculus [22]) is reported as 49 mg/kg.
In the case of `Cl.Oc1ccc2c(c1)C1(c3ccc(Cl)cc3)CCN(CCc3ccccc3)C(C2)C1` (racemic), the Activity (Mus musculus [13]) is reported as “inactive” and the ED50 (Mus musculus [5]) is reported as over 100 mg/kg.
`CC1C2Cc3ccc(O)cc3C1(c1ccc(F)cc1)CCN2C` (racemic) was tested, and the Activity (Mus musculus [8]) was “Active” and the Activity (Mus musculus [1]) was “Active”.
In the case of `CC1C2Cc3ccc(O)cc3C1(c1ccccc1)CCN2CCCC(=O)c1ccc(F)cc1.Cl.O` (centres undefined), the ED50 (Mus musculus [5]) is reported as over 100 mg/kg, the Activity (Mus musculus [23]) is reported as “inactive” and the Activity (Mus musculus [14]) is reported as “inactive”.
`CC1C2Cc3ccc(O)cc3C1(c1ccccc1)CCN2CCc1ccc(N)cc1` (centres undefined) was tested, and the Activity (Mus musculus [8]) was “Active” and the Activity (Mus musculus [24]) was “Active”.
In the case of `CC1C2Cc3ccc(OC(=O)c4ccc(Cl)cc4)cc3C1(c1ccccc1)CCN2C` (centres undefined), the Activity (Mus musculus [24]) is reported as “Active”.
`CC1C2Cc3ccc(O)cc3C1(c1ccccc1)CCN2C` (racemic) was tested, and the Activity (Mus musculus [8]) was “Active” and the Activity (Mus musculus [3]) was “Active”.
For `CC(O)C(=O)O.CC1C2Cc3ccc(O)cc3C1(c1ccccc1)CCN2CCCCc1ccccc1` (centres undefined), the Activity (Mus musculus [15]) was “inactive” and the ED50 (Mus musculus [22]) was over 100 mg/kg.
